Test results reported in ChEMBL document CHEMBL1268940, “Synthesis and anticancer evaluation of thiazolyl-chalcones” (Bioorg Med Chem Lett, 2010).

These compounds were tested on Bel-7402 (assay: Cytotoxicity against human Bel7402 cells by MTT assay). Settings: not given.
Assay type: functional, cell-based
COc1cccc(/C=C/C(=O)c2sc(Nc3ccc(Cl)c(Cl)c3)nc2C)c1 showed an IC50 greater than 25 µM.
In the case of COc1cc(/C=C/C(=O)c2sc(Nc3cccc(C)c3)nc2C)cc(OC)c1OC, the IC50 is reported as greater than 25 µM.
COc1cc(/C=C/C(=O)c2sc(Nc3ccc(Cl)cc3)nc2C)cc(OC)c1OC gave an IC50 greater than 25 µM.
With COc1cccc(/C=C/C(=O)c2sc(Nc3ccc(C)cc3)nc2C)c1 the IC50 was greater than 25 µM.
In the case of COc1cccc(/C=C/C(=O)c2sc(Nc3ccccc3C)nc2C)c1, the IC50 is reported as greater than 25 µM.
In the case of COc1ccc(/C=C/C(=O)c2sc(Nc3ccc(Cl)cc3)nc2C)cc1, the IC50 is reported as greater than 25 µM.
COc1ccc(/C=C/C(=O)c2sc(Nc3ccc(Cl)c(Cl)c3)nc2C)cc1 showed an IC50 greater than 25 µM.
Work on Cc1nc(Nc2ccc(Cl)cc2)sc1C(=O)/C=C/c1ccccc1 yielded an IC50 greater than 25 µM.
Cc1cccc(Nc2nc(C)c(C(=O)/C=C/c3ccccc3)s2)c1 showed an IC50 greater than 25 µM.
With COc1cc(/C=C/C(=O)c2sc(Nc3ccccc3C)nc2C)cc(OC)c1OC the IC50 was 10.3 µM.
Cc1ccc(Nc2nc(C)c(C(=O)/C=C/c3ccccc3Cl)s2)cc1 was tested, and the IC50 was greater than 25 µM.
For Cc1ccccc1Nc1nc(C)c(C(=O)/C=C/c2ccccc2Cl)s1, the IC50 was greater than 25 µM.
Compound COc1cc(/C=C/C(=O)c2sc(Nc3ccc(Cl)c(Cl)c3)nc2C)cc(OC)c1OC has an IC50 greater than 25 µM.
With COc1cc(/C=C/C(=O)c2sc(Nc3ccccc3)nc2C)cc(OC)c1OC the IC50 was greater than 25 µM.
Cc1nc(Nc2ccccc2)sc1C(=O)/C=C/c1ccccc1 gave an IC50 greater than 25 µM.
In the case of Cc1cccc(Nc2nc(C)c(C(=O)/C=C/c3ccccc3Cl)s2)c1, the IC50 is reported as greater than 25 µM.
With Cc1nc(Nc2cccc(Cl)c2)sc1C(=O)/C=C/c1ccccc1 the IC50 was greater than 25 µM.

What follows are compounds tested on CCRF S-180 (assay: Anticancer activity against mouse S180 cells xenografted in ICR mouse assessed as tumor weight inhibition at 25 mg/kg, ip relative to control). Settings: CCRF S-180, ip, route intraperitoneal.
Assay type: functional
With COc1cc(/C=C/C(=O)c2sc(Nc3ccc(F)c(Cl)c3)nc2C)cc(OC)c1OC the inhibition in vivo at 25 mg/kg was 23%.

These compounds were tested on PC-3 (assay: Cytotoxicity against human PC3 cells by MTT assay). Settings: not given.
Assay type: functional, cell-based
Compound COc1cccc(/C=C/C(=O)c2sc(Nc3ccc(Cl)c(Cl)c3)nc2C)c1 has an IC50 of 10.1 µM.
In the case of COc1cc(/C=C/C(=O)c2sc(Nc3cccc(C)c3)nc2C)cc(OC)c1OC, the IC50 is reported as greater than 25 µM.
With COc1cc(/C=C/C(=O)c2sc(Nc3ccc(Cl)cc3)nc2C)cc(OC)c1OC the IC50 was greater than 25 µM.
COc1cccc(/C=C/C(=O)c2sc(Nc3ccc(C)cc3)nc2C)c1 showed an IC50 greater than 25 µM.
With COc1cccc(/C=C/C(=O)c2sc(Nc3ccccc3C)nc2C)c1 the IC50 was greater than 25 µM.
In the case of COc1ccc(/C=C/C(=O)c2sc(Nc3ccc(Cl)cc3)nc2C)cc1, the IC50 is reported as greater than 25 µM.
In the case of COc1ccc(/C=C/C(=O)c2sc(Nc3ccc(Cl)c(Cl)c3)nc2C)cc1, the IC50 is reported as greater than 25 µM.
With Cc1nc(Nc2ccc(Cl)cc2)sc1C(=O)/C=C/c1ccccc1 the IC50 was 24.6 µM.
For Cc1cccc(Nc2nc(C)c(C(=O)/C=C/c3ccccc3)s2)c1, the IC50 was 11.7 µM.
In the case of COc1cc(/C=C/C(=O)c2sc(Nc3ccccc3C)nc2C)cc(OC)c1OC, the IC50 is reported as greater than 25 µM.
In the case of Cc1ccc(Nc2nc(C)c(C(=O)/C=C/c3ccccc3Cl)s2)cc1, the IC50 is reported as greater than 25 µM.
Cc1ccccc1Nc1nc(C)c(C(=O)/C=C/c2ccccc2Cl)s1 gave an IC50 greater than 25 µM.
COc1cc(/C=C/C(=O)c2sc(Nc3ccc(Cl)c(Cl)c3)nc2C)cc(OC)c1OC showed an IC50 of 19.3 µM.
Compound COc1cc(/C=C/C(=O)c2sc(Nc3ccccc3)nc2C)cc(OC)c1OC has an IC50 greater than 25 µM.
With Cc1nc(Nc2ccccc2)sc1C(=O)/C=C/c1ccccc1 the IC50 was greater than 25 µM.
Work on Cc1cccc(Nc2nc(C)c(C(=O)/C=C/c3ccccc3Cl)s2)c1 yielded an IC50 of 22.2 µM.
Cc1nc(Nc2cccc(Cl)c2)sc1C(=O)/C=C/c1ccccc1 gave an IC50 greater than 25 µM.

Each compound was assayed on CCRF S-180 (assay: Anticancer activity against mouse S180 cells xenografted in ICR mouse assessed as tumor weight inhibition at 50 mg/kg, ip relative to control). Settings: CCRF S-180, ip, route intraperitoneal.
Assay type: functional
Compound COc1cc(/C=C/C(=O)c2sc(Nc3ccc(F)c(Cl)c3)nc2C)cc(OC)c1OC has an inhibition in vivo at 50 mg/kg of 22.6%.
COc1cc(/C=C/C(=O)c2sc(Nc3ccc(Cl)c(Cl)c3)nc2C)cc(OC)c1OC showed an inhibition in vivo at 50 mg/kg of 25.1%.

These compounds were tested on BGC-823 (assay: Cytotoxicity against human BGC823 cells by MTT assay). Settings: not given.
Assay type: functional, cell-based
Compound COc1cc(/C=C/C(=O)c2sc(Nc3ccc(F)c(Cl)c3)nc2C)cc(OC)c1OC has an IC50 of 9.7 µM.
For COc1cccc(/C=C/C(=O)c2sc(Nc3ccc(Cl)c(Cl)c3)nc2C)c1, the IC50 was 8.35 µM.
Compound COc1cc(/C=C/C(=O)c2sc(Nc3cccc(C)c3)nc2C)cc(OC)c1OC has an IC50 of 17.2 µM.
In the case of COc1cc(/C=C/C(=O)c2sc(Nc3ccc(Cl)cc3)nc2C)cc(OC)c1OC, the IC50 is reported as greater than 25 µM.
COc1cccc(/C=C/C(=O)c2sc(Nc3ccc(C)cc3)nc2C)c1 showed an IC50 greater than 25 µM.
COc1cccc(/C=C/C(=O)c2sc(Nc3ccccc3C)nc2C)c1 showed an IC50 greater than 25 µM.
For COc1ccc(/C=C/C(=O)c2sc(Nc3ccc(Cl)cc3)nc2C)cc1, the IC50 was greater than 25 µM.
Work on COc1ccc(/C=C/C(=O)c2sc(Nc3ccc(Cl)c(Cl)c3)nc2C)cc1 yielded an IC50 greater than 25 µM.
In the case of Cc1nc(Nc2ccc(Cl)cc2)sc1C(=O)/C=C/c1ccccc1, the IC50 is reported as greater than 25 µM.
Cc1cccc(Nc2nc(C)c(C(=O)/C=C/c3ccccc3)s2)c1 showed an IC50 of 13.6 µM.
COc1cc(/C=C/C(=O)c2sc(Nc3ccccc3C)nc2C)cc(OC)c1OC gave an IC50 of 5.4 µM.
Work on Cc1ccc(Nc2nc(C)c(C(=O)/C=C/c3ccccc3Cl)s2)cc1 yielded an IC50 greater than 25 µM.
Cc1ccccc1Nc1nc(C)c(C(=O)/C=C/c2ccccc2Cl)s1 showed an IC50 greater than 25 µM.
COc1cc(/C=C/C(=O)c2sc(Nc3ccc(Cl)c(Cl)c3)nc2C)cc(OC)c1OC was tested, and the IC50 was greater than 25 µM.
COc1cc(/C=C/C(=O)c2sc(Nc3ccccc3)nc2C)cc(OC)c1OC gave an IC50 greater than 25 µM.
With Cc1nc(Nc2ccccc2)sc1C(=O)/C=C/c1ccccc1 the IC50 was 19.5 µM.
Cc1cccc(Nc2nc(C)c(C(=O)/C=C/c3ccccc3Cl)s2)c1 was tested, and the IC50 was 24.2 µM.
Cc1nc(Nc2cccc(Cl)c2)sc1C(=O)/C=C/c1ccccc1 gave an IC50 greater than 25 µM.

The compounds below were run on CCRF S-180 (assay: Anticancer activity against mouse S180 cells xenografted in ICR mouse assessed as tumor weight inhibition at 100 mg/kg, ip relative to control). Settings: CCRF S-180, ip, read-out: INH.
For O=P1(N(CCCl)CCCl)NCCCO1 (centres undefined) [CYCLOPHOSPHAMIDE ANHYDROUS], the inhibition in vivo at 100 mg/kg was 91.7%.

What follows are compounds tested on NCI-H460 (assay: Cytotoxicity against human NCI-H460 cells by MTT assay). Settings: not given.
Assay type: functional, cell-based
COc1cc(/C=C/C(=O)c2sc(Nc3ccc(F)c(Cl)c3)nc2C)cc(OC)c1OC showed an IC50 of 6.31 µM.
Work on COc1cccc(/C=C/C(=O)c2sc(Nc3ccc(Cl)c(Cl)c3)nc2C)c1 yielded an IC50 of 20.1 µM.
COc1cc(/C=C/C(=O)c2sc(Nc3cccc(C)c3)nc2C)cc(OC)c1OC was tested, and the IC50 was 19.8 µM.
COc1cc(/C=C/C(=O)c2sc(Nc3ccc(Cl)cc3)nc2C)cc(OC)c1OC gave an IC50 of 22 µM.
Compound COc1cccc(/C=C/C(=O)c2sc(Nc3ccc(C)cc3)nc2C)c1 has an IC50 greater than 25 µM.
For COc1cccc(/C=C/C(=O)c2sc(Nc3ccccc3C)nc2C)c1, the IC50 was greater than 25 µM.
Work on COc1ccc(/C=C/C(=O)c2sc(Nc3ccc(Cl)cc3)nc2C)cc1 yielded an IC50 greater than 25 µM.
Work on COc1ccc(/C=C/C(=O)c2sc(Nc3ccc(Cl)c(Cl)c3)nc2C)cc1 yielded an IC50 greater than 25 µM.
Cc1nc(Nc2ccc(Cl)cc2)sc1C(=O)/C=C/c1ccccc1 gave an IC50 greater than 25 µM.
For Cc1cccc(Nc2nc(C)c(C(=O)/C=C/c3ccccc3)s2)c1, the IC50 was 21.8 µM.
In the case of COc1cc(/C=C/C(=O)c2sc(Nc3ccccc3C)nc2C)cc(OC)c1OC, the IC50 is reported as 6.32 µM.
Cc1ccc(Nc2nc(C)c(C(=O)/C=C/c3ccccc3Cl)s2)cc1 gave an IC50 greater than 25 µM.
For Cc1ccccc1Nc1nc(C)c(C(=O)/C=C/c2ccccc2Cl)s1, the IC50 was greater than 25 µM.
With COc1cc(/C=C/C(=O)c2sc(Nc3ccc(Cl)c(Cl)c3)nc2C)cc(OC)c1OC the IC50 was greater than 25 µM.
COc1cc(/C=C/C(=O)c2sc(Nc3ccccc3)nc2C)cc(OC)c1OC gave an IC50 greater than 25 µM.
For Cc1nc(Nc2ccccc2)sc1C(=O)/C=C/c1ccccc1, the IC50 was greater than 25 µM.
Cc1cccc(Nc2nc(C)c(C(=O)/C=C/c3ccccc3Cl)s2)c1 showed an IC50 greater than 25 µM.
Compound Cc1nc(Nc2cccc(Cl)c2)sc1C(=O)/C=C/c1ccccc1 has an IC50 greater than 25 µM.
